Test results from patent US10350334B2, “Catheter locking solution having antimicrobial and anticoagulation properties” (Becton, Dickinson and Company, priority 2009, dated 2019).

Tested on: Staphylococcus epidermidis
Assay: Planktonic cell tests
Assay type: cell-based
Details: 12 mg/mL, 30 and 60 minutes
Procedure: In the planktonic cell tests, bupivacine was tested against non-adhering coagulase negative S. epidermidis, which is the bacterial species most prominent in the pathogenesis of CR-BSI. The planktonic cell experiments were performed by the following procedures. First, bacterial suspensions were prepared. Particularly, using BD BBL™ Qualiswab™, S. epidermidis was plated on a Tryptic Soy Broth (TSB) Petri Dish and grown overnight at 37° C. Using a sterile loop, a colony of S. epidermidis was picked up from the TSB Petri Dish and placed into a sterile flask containing 25 mL of sterile TSB media. The flask was then placed in a 37° C. shaking incubator and was shaken at 150 RPM overnight. The next day, 15 mL of the prepared bacterial suspension was placed into an autoclaved centrifuge tube and centrifuged at 10,000 RPM for 10 minutes using a Sorval Centrifuge. The bacteria from the bacterial suspension were rinsed in 0.9% saline by discarding the liquid media (after centrifugation step) and by resuspending the microbial pellet in 20 mL of sterile 0.9% saline. The bacteria were centrifuged and rinsed twice more, for a total of three saline rinses. […]
Bulk concentrations of the bupivacaine and/or vancomyacin (as noted in FIG. 1) were prepared in separate beakers and were filter sterilized. […] Samples were also assessed at time 0, in which there was no exposure to antimicrobials. […]

## CCCCN1CCCCC1C(=O)Nc1c(C)cccc1C.Cl (stereo not shown) [Bupivacaine, Bupivacaine HCl]
  antimicrobial effect against planktonic Staphylococcus epidermidis: significant antimicrobial effect
